Data from PubChem BioAssay (NCI).
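In this assay, cells in 96-well plates receive the compound at five concentrations for 48 hours. Endpoints are linearly interpolated between the surrounding concentrations. The concentration for full growth arrest is given as TGI.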

How the values were obtained:
Assay in all cases: NCI anticancer screen, dose series, 48 h
SW-620 colon = tested on: SW-620 colon
BT-549 breast = tested on: BT-549 breast
U251 CNS = tested on: U251 CNS
SK-MEL-5 melanoma = tested on: SK-MEL-5 melanoma
UACC-257 melanoma = tested on: UACC-257 melanoma
HCC-2998 colon = tested on: HCC-2998 colon
MDA-MB-435 = tested on: MDA-MB-435
EKVX NSCLC = tested on: EKVX NSCLC
RPMI-8226 leukemia = tested on: RPMI-8226 leukemia
M14 melanoma = tested on: M14 melanoma
OVCAR-4 ovarian = tested on: OVCAR-4 ovarian
NCI/ADR-RES ovarian = tested on: NCI/ADR-RES ovarian
SNB-19 CNS = tested on: SNB-19 CNS
T-47D breast = tested on: T-47D breast
COLO 205 colon = tested on: COLO 205 colon
HL-60(TB) leukemia = tested on: HL-60(TB) leukemia
HCT-15 colon = tested on: HCT-15 colon
DU-145 prostate = tested on: DU-145 prostate
SF-268 CNS = tested on: SF-268 CNS
CCRF-CEM leukemia = tested on: CCRF-CEM leukemia
PC-3 prostate = tested on: PC-3 prostate
UO-31 renal = tested on: UO-31 renal
NCI-H23 lung = tested on: NCI-H23 lung
SF-539 CNS = tested on: SF-539 CNS
UACC-62 melanoma = tested on: UACC-62 melanoma
OVCAR-8 ovarian = tested on: OVCAR-8 ovarian
OVCAR-5 ovarian = tested on: OVCAR-5 ovarian
LOX IMVI melanoma = tested on: LOX IMVI melanoma
MALME-3M melanoma = tested on: MALME-3M melanoma
SK-MEL-28 melanoma = tested on: SK-MEL-28 melanoma
OVCAR-3 ovarian = tested on: OVCAR-3 ovarian
CAKI-1 renal = tested on: CAKI-1 renal
MCF7 breast = tested on: MCF7 breast
SK-OV-3 ovarian = tested on: SK-OV-3 ovarian
SK-MEL-2 melanoma = tested on: SK-MEL-2 melanoma
MDA-N = tested on: MDA-N
HT29 colon = tested on: HT29 colon
A498 renal = tested on: A498 renal
HS 578T breast = tested on: HS 578T breast
SR leukemia = tested on: SR leukemia
K-562 leukemia = tested on: K-562 leukemia
786-0 renal = tested on: 786-0 renal
HCT-116 colon = tested on: HCT-116 colon
NCI-H522 lung = tested on: NCI-H522 lung
IGROV1 ovarian = tested on: IGROV1 ovarian
HOP-62 NSCLC = tested on: HOP-62 NSCLC
KM12 colon = tested on: KM12 colon
A549 NSCLC = tested on: A549 NSCLC
ACHN renal = tested on: ACHN renal
MOLT-4 leukemia = tested on: MOLT-4 leukemia

CNC(=O)Oc1ccc(C(=S)Nc2ccc(Br)cc2)cc1
TGI (SW-620 colon): > 100 µM
TGI (BT-549 breast): 44.2 µM
TGI (U251 CNS): 74.8 µM
TGI (SK-MEL-5 melanoma): 34.9 µM
TGI (UACC-257 melanoma): > 100 µM
TGI (HCC-2998 colon): 41.4 µM
TGI (MDA-MB-435): 63.9 µM
TGI (EKVX NSCLC): 42 µM
TGI (RPMI-8226 leukemia): > 100 µM
TGI (M14 melanoma): 46.4 µM
TGI (OVCAR-4 ovarian): 77.1 µM
TGI (NCI/ADR-RES ovarian): 54.7 µM
TGI (SNB-19 CNS): > 100 µM
TGI (T-47D breast): 80.2 µM
TGI (COLO 205 colon): 39.2 µM
TGI (HL-60(TB) leukemia): 24.8 µM
TGI (HCT-15 colon): 43.1 µM
TGI (DU-145 prostate): 81 µM
TGI (SF-268 CNS): > 100 µM
TGI (CCRF-CEM leukemia): 18.3 µM
TGI (PC-3 prostate): 83.3 µM
TGI (UO-31 renal): 60 µM
TGI (NCI-H23 lung): 38.3 µM
TGI (SF-539 CNS): 47.2 µM
TGI (UACC-62 melanoma): 30.1 µM
TGI (OVCAR-8 ovarian): 22.4 µM
TGI (OVCAR-5 ovarian): 77.4 µM
TGI (LOX IMVI melanoma): 27 µM
TGI (MALME-3M melanoma): 98.8 µM
TGI (SK-MEL-28 melanoma): 62.7 µM
TGI (OVCAR-3 ovarian): 49.4 µM
TGI (CAKI-1 renal): 51.3 µM
TGI (MCF7 breast): 83.4 µM
TGI (SK-OV-3 ovarian): > 100 µM
TGI (SK-MEL-2 melanoma): 46 µM
TGI (MDA-N): 57.3 µM
TGI (HT29 colon): 44.8 µM
TGI (A498 renal): 53.3 µM
TGI (HS 578T breast): > 100 µM
TGI (SR leukemia): 46.1 µM
TGI (K-562 leukemia): 76.1 µM
TGI (786-0 renal): 60.5 µM
TGI (HCT-116 colon): 46.1 µM
TGI (NCI-H522 lung): 31.2 µM
TGI (IGROV1 ovarian): 18.7 µM
TGI (HOP-62 NSCLC): > 100 µM
TGI (KM12 colon): 35.9 µM
TGI (A549 NSCLC): > 100 µM
TGI (ACHN renal): > 100 µM
TGI (MOLT-4 leukemia): 40.4 µM
